Assay: Absorption enhancing effect of co-administered diltiazem hydrochloride on plasma drug concentration after oral administration (Experiment 1)
Type: in vivo
Conditions: male beagle dogs fasted for 24 hours
Method: Male beagle dogs (body weight: 12 to 14 kg; one group: 3 to 8 beagle dogs) fasted for 24 hours were used in each groups. A drug having an absolute bioavailability of not more than 20 % and diltiazem hydrochloride were administered orally to the beagle dogs. After one week intervals, the drug only was administered orally to the same beagle dogs. The plasma drug concentration was examined at intervals by TCL densito metry if the drug was timepidium bromide; or by high-peformance liquid chromatography if the drug was tipepidine hibenzate or carbazochrome sodium sulfate. Based on the results obtained above, the absorption enhancing effect of diltiazem hydrochloride was calculated by the following formula; [formula]

CN1C2=CC(=O)C(=NNC(N)=O)C=C2CC1S(=O)(=O)O (stereo not drawn) [Carbazochrome sodium sulfonate, 1-methyl-5-semicarbazono-6-oxo-2,3,5,6-tetrahydroindole-2-sulfonic acid]
Absorption enhancing effect (drug 100 mg with diltiazem hydrochloride 60 mg versus drug only, plasma drug concentration by high-performance liquid chromatography): 1.9

COC1CC(=C(c2cccs2)c2cccs2)C[N+](C)(C)C1 (stereo not drawn) [Timepidium bromide, 1,1-dimethyl-5-methoxy-3-(dithien-2-yl-methylene)-piperidinium halide]
Absorption enhancing effect (drug 300 mg with diltiazem hydrochloride 30 mg versus drug only, plasma drug concentration by TLC densitometry): 2.3

CN1CCCC(=C(c2cccs2)c2cccs2)C1 [Tipepidine hibenzate, 3-(di-2-thienylmethylene)-1-methylpiperidine]
Absorption enhancing effect (drug 50 mg with diltiazem hydrochloride 60 mg versus drug only, plasma drug concentration by high-performance liquid chromatography): 2.1

— patent EP0106335B1, “Pharmaceutical composition and a method for enhancing the absorption of a pharmaceutically active compound” (Tanabe Seiyaku Co., Ltd., priority 1982, dated 1984)
